Data as given in US11203571B2, “Sulfonamides as modulators of sodium channels” (VERTEX PHARMACEUTICALS INCORPORATED, priority 2013, dated 2021).

Experiments:
[1] = target: human Nav1.8 (Homo sapiens (Human), UniProt Q9Y5Y9); experiment: E-VIPR optical membrane potential assay with electrical stimulation; assay type: cell-based; conditions: HEK cells expressing human Nav1.8
Summary of the method: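 HEK cells expressing human Nav1.8 were loaded with CC2-DMPE (8 μM) and DiSBAC6(3) (2.5 μM), then given compound for 20-35 min at room temperature (0.625% DMSO). Cells received a 10-s current-controlled electrical stimulus. Response was the stimulated/baseline 460/580 nm emission ratio (Rf/Ri), with tetracaine (125 μM) as positive control.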

[2] = Human liver microsome assay; assay type: in vitro ADME; conditions: 1 uM substrate, 0.5 mg/mL liver microsome, 2 mM NADPH, 37° C., referenced against time zero control
Summary of the method: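 Pooled human liver microsomes (0.5 mg/mL) with 1 uM substrate (0.2% DMSO), 2 mM NADPH, 0.1 M phosphate, shaken 30 min at 37° C. Quenched with cold acetonitrile; parent quantified by LC/MS/MS. Value is % substrate remaining at 30 min versus a time-zero control without NADPH.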

human Nav1.8, sequence (Q9Y5Y9 whole entry): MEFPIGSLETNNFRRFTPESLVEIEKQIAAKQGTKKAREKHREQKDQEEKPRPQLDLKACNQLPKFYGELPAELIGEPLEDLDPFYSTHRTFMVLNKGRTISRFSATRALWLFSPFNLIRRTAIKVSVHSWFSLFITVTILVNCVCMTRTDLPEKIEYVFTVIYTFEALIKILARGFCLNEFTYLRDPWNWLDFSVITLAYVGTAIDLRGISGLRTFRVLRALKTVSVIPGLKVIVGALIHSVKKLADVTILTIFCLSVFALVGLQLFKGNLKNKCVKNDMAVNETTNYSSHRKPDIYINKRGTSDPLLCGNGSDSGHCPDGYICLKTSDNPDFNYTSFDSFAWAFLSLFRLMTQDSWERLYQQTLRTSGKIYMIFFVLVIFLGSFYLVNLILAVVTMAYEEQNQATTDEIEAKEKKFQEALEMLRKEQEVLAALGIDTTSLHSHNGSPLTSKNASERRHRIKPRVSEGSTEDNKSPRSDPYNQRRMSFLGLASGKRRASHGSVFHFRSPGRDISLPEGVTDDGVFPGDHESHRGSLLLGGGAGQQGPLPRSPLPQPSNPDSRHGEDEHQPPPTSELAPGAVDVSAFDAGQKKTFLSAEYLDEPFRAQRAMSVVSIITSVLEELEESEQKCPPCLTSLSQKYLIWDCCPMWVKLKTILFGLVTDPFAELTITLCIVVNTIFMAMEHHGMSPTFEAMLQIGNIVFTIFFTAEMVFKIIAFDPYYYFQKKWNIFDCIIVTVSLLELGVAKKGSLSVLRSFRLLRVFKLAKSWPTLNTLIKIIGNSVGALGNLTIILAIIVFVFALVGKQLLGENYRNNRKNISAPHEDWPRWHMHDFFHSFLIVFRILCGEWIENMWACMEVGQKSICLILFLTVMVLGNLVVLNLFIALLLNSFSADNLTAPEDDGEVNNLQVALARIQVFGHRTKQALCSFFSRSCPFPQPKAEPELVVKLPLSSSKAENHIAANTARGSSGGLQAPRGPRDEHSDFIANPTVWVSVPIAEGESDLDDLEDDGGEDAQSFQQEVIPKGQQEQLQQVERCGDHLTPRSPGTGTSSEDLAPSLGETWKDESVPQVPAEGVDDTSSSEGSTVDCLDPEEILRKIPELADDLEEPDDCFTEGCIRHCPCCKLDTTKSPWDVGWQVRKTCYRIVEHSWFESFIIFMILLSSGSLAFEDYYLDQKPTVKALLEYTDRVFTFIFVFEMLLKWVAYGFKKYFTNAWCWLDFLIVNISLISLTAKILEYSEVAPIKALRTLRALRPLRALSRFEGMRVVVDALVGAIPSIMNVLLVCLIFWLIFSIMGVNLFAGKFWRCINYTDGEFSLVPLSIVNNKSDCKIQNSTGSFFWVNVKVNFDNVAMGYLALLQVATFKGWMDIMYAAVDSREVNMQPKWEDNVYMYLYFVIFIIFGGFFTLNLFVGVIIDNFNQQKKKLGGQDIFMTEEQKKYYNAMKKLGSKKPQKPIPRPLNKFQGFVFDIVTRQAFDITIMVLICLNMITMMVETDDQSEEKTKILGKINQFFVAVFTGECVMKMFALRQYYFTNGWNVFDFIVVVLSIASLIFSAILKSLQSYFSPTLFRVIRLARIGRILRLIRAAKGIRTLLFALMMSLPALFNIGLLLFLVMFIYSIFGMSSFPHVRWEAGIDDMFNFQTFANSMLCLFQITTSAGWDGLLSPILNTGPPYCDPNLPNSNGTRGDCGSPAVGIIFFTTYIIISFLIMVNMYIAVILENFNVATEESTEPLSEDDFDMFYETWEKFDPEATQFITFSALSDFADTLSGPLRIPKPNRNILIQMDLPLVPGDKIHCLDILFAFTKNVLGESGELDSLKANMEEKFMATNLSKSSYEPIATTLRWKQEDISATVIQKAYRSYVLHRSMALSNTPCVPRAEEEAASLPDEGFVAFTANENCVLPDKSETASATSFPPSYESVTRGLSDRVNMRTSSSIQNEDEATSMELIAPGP

IC50 [1] | HLM: percent unchanged after 30 min [2] | Structure (SMILES)
6 nM | 107% | Cc1cc(Cl)ccc1Oc1cccc(C(F)(F)F)c1C(=O)Nc1cccc(S(N)(=O)=O)c1 [Compound 58, 2-(4-chloro-2-methylphenoxy)-N-(3-sulfamoylphenyl)-6-(trifluoromethyl)benzamide]
14 nM | 66% | Cc1c(F)cccc1Oc1cccc(C(F)(F)F)c1C(=O)Nc1cccc(S(N)(=O)=O)c1 [Compound 59, 2-(3-fluoro-2-methylphenoxy)-N-(3-sulfamoylphenyl)-6-(trifluoromethyl)benzamide]
9 nM | 92% | NS(=O)(=O)c1cccc(NC(=O)c2c(Oc3ccc(OC(F)(F)F)cc3)cccc2C(F)(F)F)c1 [Compound 60, N-(3-sulfamoylphenyl)-2-(4-(trifluoromethoxy)phenoxy)-6-(trifluoromethyl)benzamide]
28 nM | 68% | COc1ccc(Oc2cccc(C(F)(F)F)c2C(=O)Nc2cccc(S(N)(=O)=O)c2)cc1F [Compound 61, 2-(3-fluoro-4-methoxyphenoxy)-N-(3-sulfamoylphenyl)-6-(trifluoromethyl)benzamide]
16 nM | 81% | COc1ccc(Oc2cc(OC(F)(F)F)ccc2C(=O)Nc2cccc(S(N)(=O)=O)c2)c(Cl)c1 [Compound 62, 2-(2-chloro-4-methoxyphenoxy)-N-(3-sulfamoylphenyl)-4-(trifluoromethoxy)benzamide]
27 nM | 92% | NS(=O)(=O)c1cccc(NC(=O)c2ccc(OC(F)(F)F)cc2Oc2ccccc2Cl)c1 [Compound 63, 2-(2-chlorophenoxy)-N-(3-sulfamoylphenyl)-4-(trifluoromethoxy)benzamide]
22 nM | 96% | NS(=O)(=O)c1cccc(NC(=O)c2ccc(OC(F)(F)F)cc2Oc2ccccc2OC(F)F)c1 [Compound 64, 2-(2-(difluoromethoxy)phenoxy)-N-(3-sulfamoylphenyl)-4-(trifluoromethoxy)benzamide]
22 nM | 101% | COc1cc(Cl)ccc1Oc1cc(OC(F)(F)F)ccc1C(=O)Nc1cccc(S(N)(=O)=O)c1 [Compound 65, 2-(4-chloro-2-methoxyphenoxy)-N-(3-sulfamoylphenyl)-4-(trifluoromethoxy)benzamide]
7 nM | 89% | COc1c(Cl)cccc1Oc1cc(OC(F)(F)F)ccc1C(=O)Nc1cccc(S(N)(=O)=O)c1 [Compound 66, 2-(3-chloro-2-methoxyphenoxy)-N-(3-sulfamoylphenyl)-4-(trifluoromethoxy)benzamide]
26 nM | 91% | COc1ccc(Oc2cc(C(F)(F)F)ccc2C(=O)Nc2cccc(S(N)(=O)=O)c2)cc1Cl [Compound 67, 2-(3-chloro-4-methoxyphenoxy)-N-(3-sulfamoylphenyl)-4-(trifluoromethyl)benzamide]
9 nM | 80% | COc1c(Cl)cccc1Oc1cc(C(F)(F)F)ccc1C(=O)Nc1cccc(S(N)(=O)=O)c1 [Compound 68, 2-(3-chloro-2-methoxyphenoxy)-N-(3-sulfamoylphenyl)-4-(trifluoromethyl)benzamide]
26 nM | 110% | NS(=O)(=O)c1cccc(NC(=O)c2ccc(C(F)(F)C(F)(F)F)cc2Oc2ccc(F)cc2)c1 [Compound 69, 2-(4-fluorophenoxy)-4-(perfluoroethyl)-N-(3-sulfamoylphenyl)benzamide]
13 nM | 87% | COc1cc(F)ccc1Oc1cc(C(F)(F)C(F)(F)F)ccc1C(=O)Nc1cccc(S(N)(=O)=O)c1 [Compound 70, 2-(4-fluoro-2-methoxyphenoxy)-4-(perfluoroethyl)-N-(3-sulfamoylphenyl)benzamide]
28 nM | 81% | COc1cc(Cl)ccc1Oc1cc(C(F)(F)C(F)(F)F)ccc1C(=O)Nc1cccc(S(N)(=O)=O)c1 [Compound 71, 2-(4-chloro-2-methoxyphenoxy)-4-(perfluoroethyl)-N-(3-sulfamoylphenyl)benzamide]
20 nM | 67% | COc1ccc(Oc2cc(C(F)(F)C(F)(F)F)ccc2C(=O)Nc2cccc(S(N)(=O)=O)c2)c(Cl)c1 [Compound 72, 2-(2-chloro-4-methoxyphenoxy)-4-(perfluoroethyl)-N-(3-sulfamoylphenyl)benzamide]
26 nM | 95% | NS(=O)(=O)c1cccc(NC(=O)c2ccc(C(F)(F)F)cc2Oc2ccccc2Cl)c1 [Compound 73, 2-(2-chlorophenoxy)-N-(3-sulfamoylphenyl)-4-(trifluoromethyl)benzamide]

IC50 [1] | HLM: percent unchanged after 30 min [2] | Structure (SMILES)
15 nM | 102% | NS(=O)(=O)c1cccc(NC(=O)c2c(Oc3ccccc3Cl)cccc2C(F)(F)F)c1 [Compound 74, 2-(2-chlorophenoxy)-N-(3-sulfamoylphenyl)-6-(trifluoromethyl)benzamide]
5 nM | 62% | COc1ccc(Oc2cccc(C(F)(F)F)c2C(=O)Nc2cccc(S(N)(=O)=O)c2)c(Cl)c1 [Compound 75, 2-(2-chloro-4-methoxyphenoxy)-N-(3-sulfamoylphenyl)-6-(trifluoromethyl)benzamide]
1 nM | 95% | COc1cc(F)ccc1Oc1cc(Cl)c(Cl)cc1C(=O)Nc1cccc(S(N)(=O)=O)c1 [Compound 77, 4,5-dichloro-2-(4-fluoro-2-methoxyphenoxy)-N-(3-sulfamoylphenyl)benzamide]
8 nM | 104% | NS(=O)(=O)c1cccc(NC(=O)c2cc(Cl)c(Cl)cc2Oc2ccc(F)cc2)c1 [Compound 78, 4,5-dichloro-2-(4-fluorophenoxy)-N-(3-sulfamoylphenyl)benzamide]
4 nM | 91% | COc1ccc(Oc2cc(Cl)c(Cl)cc2C(=O)Nc2cccc(S(N)(=O)=O)c2)cc1F [Compound 79, 4,5-dichloro-2-(3-fluoro-4-methoxyphenoxy)-N-(3-sulfamoylphenyl)benzamide]
4 nM | 108% | COc1cc(Cl)ccc1Oc1cc(Cl)c(Cl)cc1C(=O)Nc1cccc(S(N)(=O)=O)c1 [Compound 80, 4,5-dichloro-2-(4-chloro-2-methoxyphenoxy)-N-(3-sulfamoylphenyl)benzamide]
8 nM | 88% | COc1ccc(Oc2cc(Cl)c(Cl)cc2C(=O)Nc2cccc(S(N)(=O)=O)c2)c(F)c1 [Compound 81, 4,5-dichloro-2-(2-fluoro-4-methoxyphenoxy)-N-(3-sulfamoylphenyl)benzamide]
6 nM | 77% | COc1ccc(Oc2cc(Cl)c(Cl)cc2C(=O)Nc2cccc(S(N)(=O)=O)c2)c(Cl)c1 [Compound 82, 4,5-dichloro-2-(2-chloro-4-methoxyphenoxy)-N-(3-sulfamoylphenyl)benzamide]
5 nM | 93% | Cc1cc(F)ccc1Oc1cc(Cl)c(Cl)cc1C(=O)Nc1cccc(S(N)(=O)=O)c1 [Compound 83, 4,5-dichloro-2-(4-fluoro-2-methylphenoxy)-N-(3-sulfamoylphenyl)benzamide]
13 nM | 82% | COc1ccc(Oc2cc(Cl)ccc2C(=O)Nc2cccc(S(N)(=O)=O)c2)c(OC)c1 [Compound 84, 4-chloro-2-(2,4-dimethoxyphenoxy)-N-(3-sulfamoylphenyl)benzamide]
15 nM | 82% | COc1ccc(Oc2cc(Cl)ccc2C(=O)Nc2cccc(S(N)(=O)=O)c2)c(Cl)c1 [Compound 86, 4-chloro-2-(2-chloro-4-methoxyphenoxy)-N-(3-sulfamoylphenyl)benzamide]
7 nM | 105% | NS(=O)(=O)c1cccc(NC(=O)c2c(Oc3ccc(F)cc3)cc(C(F)(F)F)cc2C(F)(F)F)c1 [Compound 88, 2-(4-fluorophenoxy)-N-(3-sulfamoylphenyl)-4,6-bis(trifluoromethyl)benzamide]
1 nM | 87% | COc1cc(F)ccc1Oc1cc(C(F)(F)F)cc(C(F)(F)F)c1C(=O)Nc1cccc(S(N)(=O)=O)c1 [Compound 89, 2-(4-fluoro-2-methoxyphenoxy)-N-(3-sulfamoylphenyl)-4,6-bis(trifluoromethyl)benzamide]
7 nM | 92% | COc1ccc(Oc2cc(C(F)(F)F)cc(C(F)(F)F)c2C(=O)Nc2cccc(S(N)(=O)=O)c2)cc1F [Compound 90, 2-(3-fluoro-4-methoxyphenoxy)-N-(3-sulfamoylphenyl)-4,6-bis(trifluoromethyl)benzamide]
7 nM | 69% | COc1ccc(Oc2cc(C(F)(F)F)cc(C(F)(F)F)c2C(=O)Nc2cccc(S(N)(=O)=O)c2)c(F)c1 [Compound 91, 2-(2-fluoro-4-methoxyphenoxy)-N-(3-sulfamoylphenyl)-4,6-bis(trifluoromethyl)benzamide]
16 nM | 113% | COc1ccc(F)cc1Oc1cc(C(F)(F)F)cc(C(F)(F)F)c1C(=O)Nc1cccc(S(N)(=O)=O)c1 [Compound 92, 2-(5-fluoro-2-methoxyphenoxy)-N-(3-sulfamoylphenyl)-4,6-bis(trifluoromethyl)benzamide]
